Structures are written as SMILES. “And” between values parts separate entries of the source, which are not always exact repeats. Identical values can stand only once. Results filed as inconclusive are left out. The source made the active and inactive calls.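 How the source made its calls: active means fitted half-maximal concentration of signal decrease at or below twice the sample's top tested concentration; inconclusive means flat curve between -70 and -30 percent, or poor fit; inactive means flat within 30 percent, signal rise, or potency above limit.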

The assay deals with T. gondii ME49Luc in IFN-y HeLa, luciferase, 72 h. Description: inhibitors of Toxoplasma growth in IFN-γ-primed HeLa – cell-based, ME49Luc, luciferase, 72 h, dose response (AID 1259418).
As to `COc1ccc(-c2nc(NCCN3CCC(C)CC3)c3ccccc3n2)cc1`, the AC50 is 9.97 µM.
With `COc1cccc(N(Cc2nc(-c3cccc(C)c3)oc2C)S(=O)(=O)c2ccc(C)cc2)c1`, the AC50 is 4.46 µM.
Consider `N#Cc1cccc(-c2ccc3c(c2)[C@@H]2[C@@H](CCN2C(=O)c2ccccc2F)[C@@H](CO)N3)c1`, for which the AC50 was 23.3 µM.
With `COc1ccc(-c2nc(NCCCN3CCC(N4CCCCC4)CC3)c3ccccc3n2)cc1` the figure was 31.3 µM; with `CC(=O)O.CC(=O)O.[Cl][Pt+2][Cl].[NH-]C1CCCCC1.[NH2-]`, 25.4 µM.
With `O=S(=O)(c1ccc(Cl)s1)N1CCC2(CC1)NCCN=C2NCc1cc(F)cc(F)c1` the figure was 18 µM; with `N#Cc1cccc(-c2ccc(C3[C@@H]4CN(C(=O)Nc5ccc(C(F)(F)F)cc5)C[C@H]3N4)cc2)c1` (stereo partly drawn), 5.28 µM; with `COc1cc([C@@H]2c3cc4c(cc3C(OC3OC5COC(C)OC5C(O)C3O)C3OCC(=O)[C@@H]32)OCO4)cc(OC)c1O` (stereo partly drawn), 8.96 µM.
To `COc1ccccc1CN1CC[C@@H]2[C@H]1c1cc(-c3cccc(C(=O)N(C)C)c3)ccc1N[C@@H]2CO` belongs 19.6 µM.
As for `CCOC(=O)CSC1=Nc2ccccc2C2=NC(CCC(=O)NCc3ccc(OC)cc3)C(=O)N12` (stereo not drawn), the AC50 is 27.8 µM.
To `Cc1ccc(C(=O)Nc2ccc3c(c2)CCC(=O)N3)s1` belongs 11.6 µM; to `O=C(CC1N=C2c3ccccc3N=C(SCc3cccc(Cl)c3)N2C1=O)NCCc1ccccc1` (stereo not drawn), 19.3 µM; to `COc1cccc(NC(=O)N2CCN(Cc3nc(-c4ccc(C)cc4)oc3C)CC2)c1`, 22 µM.
For the molecule `Cc1ccc(-c2cc(O)c3c(c2)CN(C(=O)CCN2CCCO2)CCO3)s1`, the AC50 was 13.5 µM.
As for `COCC1(C(=O)N2CCc3c(nc(-c4ccccc4)[nH]c3=O)C2)CCC1`, the AC50 is 36.2 µM.
Take `COc1ccccc1N(Cc1nc(-c2cccc(C)c2)oc1C)S(=O)(=O)c1ccc(C)cc1`: the AC50 was 9.12 µM.
Regarding `O=C(CC1N=C2c3ccccc3N=C(SCc3ccc(F)cc3)N2C1=O)NCCc1ccccc1` (stereo not drawn), the AC50 is 4.59 µM.
With `Cc1ccccc1S(=O)(=O)N1CCCCN2[C@H](C1)[C@H](c1ccc(C#CCN(C)C)cc1)[C@@H]2CO` the figure was 18.6 µM.
In the case of `CC(C)Cc1ccc(S(=O)(=O)N2CCC3(CC2)NCCN=C3NC2CCCCC2)cc1`, the AC50 was 25.6 µM.
With `Cc1ccc(-c2coc(-c3ccc(NS(=O)(=O)c4ccc(Br)cc4)cc3)n2)c(C)c1` the figure was 27.9 µM; with `CC(C)COC1CC2(CCN(C(=O)c3cccn3C)CC2)C1`, 14.6 µM.
To `CCN1CCCC1CNC(=O)C1CCN(Cc2cc3ccccc3n2Cc2ccccc2Cl)CC1` (stereo not drawn) belongs 28.7 µM; to `COc1cccc(S(=O)(=O)N2CCCCN3[C@H](CO)[C@H](c4ccc(-c5ccccc5)cc4)[C@H]3C2)c1`, 5.11 µM.
With `Cc1cccc(-c2ccc(C3[C@@H]4CN(Cc5cccc(F)c5)C[C@H]3N4)cc2)c1` (stereo partly drawn) the figure was 26.2 µM; with `c1ccc(-c2noc(-c3ccc(N4CCC(N5CCCCC5)CC4)nc3)n2)cc1`, 18.6 µM.
Turning to `COc1ccc(NC(=O)CN2CCC3(CC2)N=C(c2cccc(Cl)c2)C(=O)N3)cc1`, the AC50 is 18.2 µM.
On to `COc1ccc(-c2nc(N3CCC4(CC3)OCCO4)c3ccccc3n2)cc1`, for which the AC50 is 20.1 µM.
To `Clc1ccc(-c2nc(N3CCC(c4ccccc4)C3)c3ccccc3n2)cc1` (stereo not drawn) belongs 32.4 µM.
With `COc1ccc(-c2ccc(C3[C@@H]4CN(C(=O)c5ccc(F)cc5)C[C@H]3N4)cc2)cc1` (stereo partly drawn) the figure was 15.8 µM and 11.3 µM; with `CCOc1ccc(-c2nc(CN(c3cccc(OC)c3)S(=O)(=O)c3ccccc3)c(C)o2)cc1`, 6.87 µM.
For `Fc1cccc(CSc2nc(NC3CCCCC3)c3ccccc3n2)c1`, the AC50 was > 39 µM (inactive).
As for `COc1ccc(-c2nc(CN(c3ccccc3OC)S(=O)(=O)c3ccc(C)cc3)c(C)o2)cc1`, the AC50 is 5.3 µM.
To `COc1cc(Nc2nc(SCc3ccc(F)cc3)nc3ccccc23)cc(OC)c1` belongs 13.2 µM; to `Cc1ccc(Cn2c(=O)c3nn(C)cc3n3c(=O)n(Cc4nc(-c5ccccc5)oc4C)nc23)cc1`, 13.1 µM.
As to `O=C(CC1N=C2c3ccccc3N=C(SCc3ccccc3F)N2C1=O)NCCc1ccccc1` (stereo not drawn), the AC50 is > 39 µM (inactive).
With `Cc1ccccc1-c1ccc([C@H]2[C@H](CO)N3CCCCN(S(=O)(=O)Cc4ccccc4)C[C@@H]23)cc1` the figure was 16.5 µM; with `CCOc1ccc(-c2nc(CN3CCN(C(=O)Nc4cc(OC)ccc4OC)CC3)c(C)o2)cc1`, 38 µM.
As to `CCc1ccc(S(=O)(=O)N2CCC3(CC2)NCCN=C3NCc2ccccc2)cc1`, the concentration at half-maximal activity (AC50) was 21.8 µM.
As for `O=C(NC1CCCCC1)N1C[C@@H]2N[C@H](C1)C2c1ccc(-c2ccc(F)cc2)cc1` (stereo partly drawn), the AC50 is 22.7 µM.
With `O=C(Nc1ccc(-c2nc(-c3ccccc3)co2)cc1)c1cccc(F)c1` the figure was 30.6 µM; with `COc1ccc(-c2nc(Nc3ccc(OC)cc3OC)c3ccccc3n2)cc1`, 13.3 µM.
To `FC(F)(F)C1CN(c2cc(-c3ccccc3)nc3ccccc23)CCO1` (stereo not drawn) belongs 25.1 µM.
For the molecule `CCN1CCN(CCCNc2nc(-c3ccc(Cl)cc3)nc3ccccc23)CC1`, the AC50 was > 20 µM (inactive).
Take `CC(C)n1c(C(=O)N2CCN(c3ccncc3)CC2)cc2c1c1ccccc1n2C`: the AC50 is 19.9 µM.
Take `COc1ccc(OC)c(S(=O)(=O)N2CCc3c([nH]c4ccccc34)C2c2cccc(F)c2)c1` (stereo not drawn): the AC50 was > 39 µM (inactive).
To `CC(C)CNC(=O)c1cc(-c2ccn(CC3CC3)n2)n2ccccc12` belongs 13.3 µM; to `Cc1ccc(CSC2=Nc3ccccc3C3=NC(CCC(=O)NCc4ccc5c(c4)OCO5)C(=O)N23)c(C)c1` (stereo not drawn), 27.2 µM.
With `O=C(NCCc1csc(-c2ccccc2)n1)C1CCN(S(=O)(=O)c2ccc(F)cc2)CC1` the figure was 11.4 µM.
To `COc1ccc(-c2nc(NCCCN3CCN(c4ccccc4)CC3)c3ccccc3n2)cc1` belongs 29.8 µM; to `COc1ccc(CNC(=O)CC2N=C3c4ccccc4N=C(SCc4ccc(F)cc4)N3C2=O)cc1` (stereo not drawn), 22.6 µM.
Consider `CCCC(C)c1c(-c2ccccc2)ncn1Cc1cnc(C)cn1` (stereo not drawn), for which the AC50 is 33.4 µM.
For the molecule `CCCNc1nc(-c2ccccc2Cl)nc2ccccc12`, the AC50 was 23.9 µM.
With `COCC(=O)N(C[C@H]1N[C@H](CO)[C@@H]1c1ccc(C2=CCCC2)cc1)C1CCCC1` the figure was 16.3 µM; with `CC1CCCCN1CCNc1nc(-c2ccc(Cl)cc2)nc2ccccc12` (stereo not drawn), 10.9 µM and 12.7 µM; with `COc1cccc(C#Cc2ccc([C@@H]3[C@@H](C#N)N[C@@H]3CO)cc2)c1`, 38.4 µM.
With `Clc1ccc(-c2nc(N3CCC(N4CCCCC4)CC3)c3ccccc3n2)cc1`, the AC50 was 18.4 µM.
To `Cc1cccc(CNC2=NCCNC23CCN(S(=O)(=O)c2ccc4c(c2)CCCC4)CC3)c1` belongs 5.08 µM; to `O=C(c1ccc(F)cc1)N1CC(=O)N2[C@@H](CO)[C@@H](c3ccc(C#CCC4CCCC4)cc3)[C@@H]2C1`, 23.5 µM.
To `O=C(CCC1N=C2c3ccccc3N=C(SCc3ccc(F)cc3)N2C1=O)NCc1ccccc1` (stereo not drawn) belongs 31.8 µM.
Regarding `COc1cccc(NC(=O)N2CC(=O)N3[C@@H](CO)[C@@H](c4ccc(C#CCC5CCCC5)cc4)[C@@H]3C2)c1`, the AC50 is 22.5 µM.
To `CCc1cnc(N2[C@H](CO)[C@@H](c3ccc(C#Cc4ccccc4F)cc3)[C@@H]2C#N)s1` belongs 21.3 µM; to `C/C=C/c1ccc([C@H]2[C@@H](CO)N3CCCCN(S(=O)(=O)c4ccc(OC)cc4)C[C@@H]23)cc1`, 18.4 µM; to `Cc1ccc(S(=O)(=O)N2CCC3(CC2)NCCN=C3NCc2ccc(Cl)cc2)cc1C`, 8.04 µM.
Regarding `COc1ccc(-c2nc3c(s2)CN(S(=O)(=O)c2ccc(C)c(C)c2)CC3)cc1`, the AC50 is 20.7 µM.
Regarding `COc1ccc(-c2nc(Cn3nnc(-c4nc(-c5ccncc5)no4)c3C)c(C)o2)cc1`, the AC50 is > 39 µM (inactive).
In the case of `COc1ccc(-n2nnc3c(N4CCN(C(=O)C(=O)c5c[nH]c6ccccc56)CC4)ncnc32)cc1`, the AC50 was 20.3 µM.
To `CC(C)CC#Cc1ccc([C@H]2[C@H]3CN(C(=O)c4cccc(F)c4)CC(=O)N3[C@H]2CO)cc1` belongs 20.3 µM.
With `CC(C)(Cc1ccc2ccccc2c1)NC[C@@H](O)COc1cccc(Cl)c1C#N`, the AC50 is 13.3 µM.
On to `O=C(CC1Nc2c3ccccc3nc(=S)n2C1=O)NCc1ccc2c(c1)OCO2` (stereo not drawn), for which the AC50 was > 39 µM (inactive).
For `CC(C)(O)CC(=O)NCCn1ccc2ncnc(Nc3ccc(Oc4cccc(C(F)(F)F)c4)c(Cl)c3)c21`, the AC50 is 24.1 µM.
To `O=C(NC1CCCC1)N1CCCCN2[C@@H](CO)[C@H](c3ccc(-c4cccnc4)cc3)[C@@H]2C1` belongs 23.3 µM; to `O=C(Cc1cccnc1)N1CC(=O)N2[C@H](CO)[C@H](c3ccc(C#CC4CCCCC4)cc3)[C@H]2C1`, 19.4 µM.
With `COc1ccccc1C(=O)Nc1ccc(-c2nc(-c3ccccc3)co2)cc1` the figure was 33.3 µM.
Turning to `Cc1ccc(-c2coc(-c3ccc(NC(=O)Nc4ccc(Br)cc4)cc3)n2)cc1`, the AC50 was > 39 µM (inactive).
For `O=C(CCC1N=C2c3ccccc3N=C(SCc3ccc(F)cc3)N2C1=O)NC1CCCCC1` (stereo not drawn), the AC50 is 16.2 µM.
To `CCc1cnc(N2[C@H](C#N)[C@@H](c3ccc(C#Cc4ccccc4F)cc3)[C@H]2CO)s1` belongs 20.5 µM and 6.21 µM; to `O=C(C[C@H]1CC[C@H]2[C@@H](COC[C@@H](O)CN2Cc2ccc(Oc3ccccc3)cc2)O1)N1CCN(c2ccccc2)CC1`, 15.2 µM and 32.3 µM.
On to `COC(=O)C[C@H]1CC[C@@H]2[C@H](COc3ccc(NC(=O)Nc4cccc(C#N)c4)cc3C(=O)N2C)O1`, for which the AC50 was 19.5 µM.
Consider `C(=C\c1ccc(C2[C@@H]3CN(Cc4ccc5c(c4)OCO5)C[C@H]2N3)cc1)/c1ccccc1` (stereo partly drawn), for which the AC50 was 13.2 µM.
To `O=C(Cc1ccccn1)N1CC(=O)N2[C@H](CO)[C@H](c3ccc(C#CCC4CCCC4)cc3)[C@H]2C1` belongs 19.4 µM and 8.78 µM; to `COc1ccc(C#Cc2ccc([C@@H]3[C@H]4CN(C(=O)NC(C)C)CC(=O)N4[C@H]3CO)cc2)cc1`, 9.33 µM and 7.45 µM.
With `COc1ccc(-c2nc(NCCCN3CCN(C)CC3)c3ccccc3n2)cc1` the figure was 14.4 µM; with `O=C(CC1N=C2c3ccccc3N=C(SCc3ccccc3F)N2C1=O)NCc1cccs1` (stereo not drawn), 18.4 µM.

As usually defined, the AC50 is the concentration at which the activity in the assay is half-maximal.

The record behind these values is PubChem BioAssay AID1259418 (Broad Institute, 2018).
